# PubChem BioAssay AID2060483 (Molecular Pharmacology Branch, DTP, NCI, 2025)
# System: K24384-001-R-PDC complex spheroids, viability
# Test: Anticancer human tumor K24384-001-R-PDC patient-derived pancreatic adenocarcinoma cell line growth inhibition [GQUAD]
# Details: for IC50: curve of first compound; for viability, T/C: stronger effect = lower value
# Outline: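 Multi-cell-type spheroids of tumor cells with HUVEC and mesenchymal stem cells, treated with drug combinations. Concentrations descend in half-log steps from near clinical Cmax, or from 10 microM where Cmax is unknown; viability read-out.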
# [1] = second compound 0.0316 µM, first compound 0.0316 µM
# [2] = second compound 0.0316 µM, first compound 0.1 µM
# [3] = second compound 0.0316 µM, first compound 0.316 µM
# [4] = second compound 0.0316 µM, first compound 1 µM
# [5] = second compound 0.0316 µM, first compound 3.16 µM
# [6] = second compound 0.0316 µM, first compound 10 µM
# [7] = second compound 0.1 µM, first compound 0.0316 µM
# [8] = second compound 0.1 µM, first compound 0.1 µM
# [9] = second compound 0.1 µM, first compound 0.316 µM
# [10] = second compound 0.1 µM, first compound 1 µM
# [11] = second compound 0.1 µM, first compound 3.16 µM
# [12] = second compound 0.1 µM, first compound 10 µM
# [13] = second compound 0.316 µM, first compound 0.0316 µM
# [14] = second compound 0.316 µM, first compound 0.1 µM
# [15] = second compound 0.316 µM, first compound 0.316 µM
# [16] = second compound 0.316 µM, first compound 1 µM
# [17] = second compound 0.316 µM, first compound 3.16 µM
# [18] = second compound 0.316 µM, first compound 10 µM
# [19] = second compound 1 µM, first compound 0.0316 µM
# [20] = second compound 1 µM, first compound 0.1 µM
# [21] = second compound 1 µM, first compound 0.316 µM
# [22] = second compound 1 µM, first compound 1 µM
# [23] = second compound 1 µM, first compound 3.16 µM
# [24] = second compound 1 µM, first compound 10 µM
# [25] = second compound 3.16 µM, first compound 0.0316 µM
# [26] = second compound 3.16 µM, first compound 0.1 µM
# [27] = second compound 3.16 µM, first compound 0.316 µM
# [28] = second compound 3.16 µM, first compound 1 µM
# [29] = second compound 3.16 µM, first compound 3.16 µM
# [30] = second compound 3.16 µM, first compound 10 µM
# [31] = second compound 10 µM, first compound 0.0316 µM
# [32] = second compound 10 µM, first compound 0.1 µM
# [33] = second compound 10 µM, first compound 0.316 µM
# [34] = second compound 10 µM, first compound 1 µM
# [35] = second compound 10 µM, first compound 3.16 µM
# [36] = second compound 10 µM, first compound 10 µM
# 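Also: spheroids exposed to compounds for seven days.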
smiles,measurement,setting,value
Cc1cccc(N(C)C(=O)C2C(O)CCN2c2nc(C)cc(C(F)(F)F)c2C#N)c1 (centres undefined) + CN(C)c1ccc(Nc2c3ccc(NC(=O)CCN4CCCC4)cc3nc3cc(NC(=O)CCN4CCCC4)ccc23)cc1,IC50,second compound 0.0316 µM,> 10 µM
same,IC50,second compound 0.1 µM,> 10 µM
same,IC50,second compound 0.316 µM,> 10 µM
same,IC50,second compound 1 µM,> 10 µM
same,IC50,second compound 3.16 µM,> 10 µM
same,IC50,second compound 10 µM,3.01 µM
same,"viability, T/C",[1],95.3%
same,"viability, T/C",[2],87.9%
same,"viability, T/C",[3],91.3%
same,"viability, T/C",[4],90.6%
same,"viability, T/C",[5],109%
same,"viability, T/C",[6],111%
same,"viability, T/C",[7],101%
same,"viability, T/C",[8],110%
same,"viability, T/C",[9],106%
same,"viability, T/C",[10],102%
same,"viability, T/C",[11],100%
same,"viability, T/C",[12],97.6%
same,"viability, T/C",[13],90.2%
same,"viability, T/C",[14],81.9%
same,"viability, T/C",[15],85.4%
same,"viability, T/C",[16],87.7%
same,"viability, T/C",[17],102%
same,"viability, T/C",[18],95.3%
same,"viability, T/C",[19],98%
same,"viability, T/C",[20],83.6%
same,"viability, T/C",[21],94.7%
same,"viability, T/C",[22],107%
same,"viability, T/C",[23],91.8%
same,"viability, T/C",[24],94.3%
same,"viability, T/C",[25],93%
same,"viability, T/C",[26],86.2%
same,"viability, T/C",[27],80.4%
same,"viability, T/C",[28],104%
same,"viability, T/C",[29],117%
same,"viability, T/C",[30],74.4%
same,"viability, T/C",[31],89.7%
same,"viability, T/C",[32],79.8%
same,"viability, T/C",[33],76.2%
same,"viability, T/C",[34],61.8%
same,"viability, T/C",[35],51.1%
same,"viability, T/C",[36],31.9%
O=C(c1cc(Cc2n[nH]c(=O)c3ccccc23)ccc1F)N1CCN(C(=O)C2CC2)CC1 + CN(C)c1ccc(Nc2c3ccc(NC(=O)CCN4CCCC4)cc3nc3cc(NC(=O)CCN4CCCC4)ccc23)cc1,IC50,second compound 0.0316 µM,> 10 µM
same,IC50,second compound 0.1 µM,> 10 µM
same,IC50,second compound 0.316 µM,> 10 µM
same,IC50,second compound 1 µM,> 10 µM
same,IC50,second compound 3.16 µM,> 10 µM
same,IC50,second compound 10 µM,> 10 µM
same,"viability, T/C",[1],91.5%
same,"viability, T/C",[2],87.2%
same,"viability, T/C",[3],103%
same,"viability, T/C",[4],85.3%
same,"viability, T/C",[5],94%
same,"viability, T/C",[6],65.3%
same,"viability, T/C",[7],98.4%
same,"viability, T/C",[8],97%
same,"viability, T/C",[9],102%
same,"viability, T/C",[10],82.5%
same,"viability, T/C",[11],78.7%
same,"viability, T/C",[12],76.3%
same,"viability, T/C",[13],82.2%
same,"viability, T/C",[14],90.1%
same,"viability, T/C",[15],102%
same,"viability, T/C",[16],81.2%
same,"viability, T/C",[17],87.8%
same,"viability, T/C",[18],72.2%
same,"viability, T/C",[19],85.3%
same,"viability, T/C",[20],103%
same,"viability, T/C",[21],97.1%
same,"viability, T/C",[22],108%
same,"viability, T/C",[23],92.9%
same,"viability, T/C",[24],71.2%
same,"viability, T/C",[25],89.5%
same,"viability, T/C",[26],90.6%
same,"viability, T/C",[27],92%
same,"viability, T/C",[28],100%
same,"viability, T/C",[29],86.5%
same,"viability, T/C",[30],62.2%
same,"viability, T/C",[31],86.4%
same,"viability, T/C",[32],89.5%
same,"viability, T/C",[33],94.6%
same,"viability, T/C",[34],91.2%
same,"viability, T/C",[35],86.2%
same,"viability, T/C",[36],61.4%
